SMILES strings stand for the structures.

This is an account of results in patent publication US11254688B2 (Boehringer Ingelheim International GmbH, priority 2018, dated 2022).

The assay concerns the target T1, hGOAT (Homo sapiens, UniProt Q96T53).
T1 construct: expressed in transfected cells; host or cells: HEK293 (Hek293 hGOAT/PPGhrl Clone #1B8)
T1 sequence (Q96T53 1-435): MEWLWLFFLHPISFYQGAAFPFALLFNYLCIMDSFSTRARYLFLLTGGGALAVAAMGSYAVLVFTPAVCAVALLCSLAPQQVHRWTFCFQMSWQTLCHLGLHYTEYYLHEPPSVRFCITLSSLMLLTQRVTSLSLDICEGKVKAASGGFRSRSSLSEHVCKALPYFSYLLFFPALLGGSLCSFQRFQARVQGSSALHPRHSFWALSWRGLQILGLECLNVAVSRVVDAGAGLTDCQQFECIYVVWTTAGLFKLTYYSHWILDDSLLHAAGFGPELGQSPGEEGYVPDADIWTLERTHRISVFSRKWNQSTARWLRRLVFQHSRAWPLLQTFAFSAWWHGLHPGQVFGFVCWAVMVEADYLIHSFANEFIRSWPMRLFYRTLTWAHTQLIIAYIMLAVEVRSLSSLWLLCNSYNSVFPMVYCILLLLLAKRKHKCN
Put plainly: Determination of hGOAT activity in HEK293 cells after incubation with test compound (acyl-ghrelin ELISA). The class given is cell-based. The note with it: HEK293 cells stably transfected with preproghrelin and human GOAT; octanoate-BSA 100 μM; 5 hours incubation; acyl-ghrelin in medium by ELISA; 8 compound concentrations.
For `Cc1nc2nonc2c(N)c1Cc1ccc(-c2cscc2C#N)nc1` [Compound 12.4, 4-[5-(7-Amino-5-methyl-[1,2,5]oxadiazolo[3,4-b]pyridin-6-ylmethyl)-pyridin-2-yl]-thiophene-3-carbonitrile], the IC50 – broadly, the point on the concentration scale where inhibition reaches its midpoint – amounted to 1.52 nM.

`Cc1nc2nonc2c(N)c1Cc1ccc(-c2ccc(C#N)s2)nc1` [Compound 12.5, 5-[5-(7-Amino-5-methyl-[1,2,5]oxadiazolo[3,4-b]pyridin-6-ylmethyl)-pyridin-2-yl]-thiophene-2-carbonitrile] returned an IC50 of 3.66 nM. Turning to `Cc1nc2nonc2c(N)c1Cc1ccc(-c2c(C)noc2C)nc1` [Compound 12.6, 6-{[6-(3,5-Dimethyl-1,2-oxazol-4-yl)pyridin-3-yl]methyl}-5-methyl-[1,2,5]oxadiazolo[3,4-b]pyridin-7-amine], the IC50 is 0.402 nM. The figure for `Cc1nc2nonc2c(N)c1Cc1ccc(-c2cn(C)nc2C(F)(F)F)nc1` [Compound 12.7, 5-Methyl-6-({6-[1-methyl-3-(trifluoromethyl)-1H-pyrazol-4-yl]pyridin-3-yl}methyl)-[1,2,5]oxadiazolo[3,4-b]pyridin-7-amine] is 1.17 nM; for `Cc1nc2nonc2c(N)c1Cc1ccc(-c2cncn2C)nc1` [Compound 12.8, 5-Methyl-6-{[6-(1-methyl-1H-imidazol-5-yl)pyridin-3-yl]methyl}-[1,2,5]oxadiazolo[3,4-b]pyridin-7-amine] it is 0.531 nM; for `Cc1nc2nonc2c(N)c1Cc1ccc(-c2ccco2)nc1` [Compound 12.9, 6-{[6-(Furan-2-yl)pyridin-3-yl]methyl}-5-methyl-[1,2,5]oxadiazolo[3,4-b]pyridin-7-amine] it is 1.49 nM. In turn, `Cc1nc2nonc2c(N)c1Cc1ccc(-c2c[nH]nc2C(F)(F)F)nc1` [Compound 12.10, 5-Methyl-6-({6-[3-(trifluoromethyl)-1H-pyrazol-4-yl]pyridin-3-yl}methyl)-[1,2,5]oxadiazolo[3,4-b]pyridin-7-amine] displayed an IC50 of 0.437 nM. In the case of `Cc1nc2nonc2c(N)c1Cc1ccc(-c2c(C)noc2C)n2cnnc12` [Compound 12.11, 6-{[5-(3,5-Dimethyl-1,2-oxazol-4-yl)-[1,2,4]triazolo[4,3-a]pyridin-8-yl]methyl}-5-methyl-[1,2,5]oxadiazolo[3,4-b]pyridin-7-amine] it was 1.31 nM. The compound `Cc1nc2nonc2c(N)c1Cc1ccc(-c2ccsc2C#N)n2cnnc12` [Compound 12.12, 3-[8-({7-Amino-5-methyl-[1,2,5]oxadiazolo[3,4-b]pyridin-6-yl}methyl)-[1,2,4]triazolo[4,3-a]pyridin-5-yl]thiophene-2-carbonitrile] returned an IC50 of 1.25 nM. `Cc1nc2nonc2c(N)c1Cc1ccc(-c2ccnn2C)n2cnnc12` [Compound 12.13, 5-Methyl-6-[5-(2-methyl-2H-pyrazol-3-yl)-[1,2,4]triazolo[4,3-a]pyridin-8-ylmethyl]-[1,2,5]oxadiazolo[3,4-b]pyridin-7-ylamine] showed an IC50 of 2.79 nM. As to `Cc1nc2nonc2c(N)c1Cc1cccc(N=S(C)(C)=O)c1` [Compound 13.1, {[3-({7-Amino-5-methyl-[1,2,5]oxadiazolo[3,4-b]pyridin-6-yl}methyl)phenyl]imino}dimethyl-λ^6-sulfanone], half-maximal inhibition (IC50) was put at 1.54 nM. For `Cc1nc2nonc2c(N)c1Cc1ccc(OC(F)(F)F)c(N=S(C)(C)=O)c1` [Compound 13.2, {[5-({7-Amino-5-methyl-[1,2,5]oxadiazolo[3,4-b]pyridin-6-yl}methyl)-2-(trifluoromethoxy)phenyl]imino}dimethyl-λ^6-sulfanone], the IC50 was determined as 0.033 nM. For `Cc1nc2nonc2c(N)c1Cc1ccc(C(N)=O)cc1` [Compound 14.1, 4-({7-Amino-5-methyl-[1,2,5]oxadiazolo[3,4-b]pyridin-6-yl}methyl)benzamide], the IC50 was determined as 6.29 nM. `Cc1nc2nonc2c(N)c1Cc1ccc(C(=O)N(C)C)cc1` [Compound 14.2, 4-({7-Amino-5-methyl-[1,2,5]oxadiazolo[3,4-b]pyridin-6-yl}methyl)-N,N-dimethylbenzamide] gave an IC50 of 0.665 nM. Take `Cc1nc2nonc2c(N)c1Cc1ccc(C(=O)NCC2CN(C)CCO2)cc1` (stereo not drawn) [Compound 14.3, 4-({7-Amino-5-methyl-[1,2,5]oxadiazolo[3,4-b]pyridin-6-yl}methyl)-N-[(4-methylmorpholin-2-yl)methyl]benzamide]: the IC50 worked out at 2.93 nM. Turning to `Cc1nc2nonc2c(N)c1Cc1ccc(C(=O)NCc2ccn(C)n2)cc1` [Compound 14.4, 4-({7-Amino-5-methyl-[1,2,5]oxadiazolo[3,4-b]pyridin-6-yl}methyl)-N-[(1-methyl-1H-pyrazol-3-yl)methyl]benzamide], the IC50 is 2.25 nM. Compound `Cc1nc2nonc2c(N)c1Cc1ccc(C(=O)NC2CCOCC2)cc1` [Compound 14.5, 4-({7-Amino-5-methyl-[1,2,5]oxadiazolo[3,4-b]pyridin-6-yl}methyl)-N-(oxan-4-yl)benzamide] yielded an IC50 of 2.37 nM. The figure for `Cc1nc2nonc2c(N)c1Cc1ccc(C(=O)NC2(CO)CC2)cc1` [Compound 14.6, 4-({7-Amino-5-methyl-[1,2,5]oxadiazolo[3,4-b]pyridin-6-yl}methyl)-N-[1-(hydroxymethyl)cyclopropyl]benzamide] is 4.27 nM; for `Cc1nc2nonc2c(N)c1Cc1ccc(C(=O)Nc2cn(C)nc2C(F)(F)F)cc1` [Compound 14.7, 4-({7-Amino-5-methyl-[1,2,5]oxadiazolo[3,4-b]pyridin-6-yl}methyl)-N-[1-methyl-3-(trifluoromethyl)-1H-pyrazol-4-yl]benzamide] it is 1.83 nM. `Cc1nc2nonc2c(N)c1Cc1ccc(C(=O)NCc2cnccn2)cc1` [Compound 14.8, 4-({7-Amino-5-methyl-[1,2,5]oxadiazolo[3,4-b]pyridin-6-yl}methyl)-N-[(pyrazin-2-yl)methyl]benzamide]: the IC50 was 3.64 nM. In turn, `Cc1nc2nonc2c(N)c1Cc1ccc(C(=O)NC2CCN(C)C2=O)cc1` (stereo not drawn) [Compound 14.9, 4-({7-Amino-5-methyl-[1,2,5]oxadiazolo[3,4-b]pyridin-6-yl}methyl)-N-(1-methyl-2-oxopyrrolidin-3-yl)benzamide] returned an IC50 of 3.06 nM.

On to `Cc1nc2nonc2c(N)c1Cc1ccc(C(=O)NC(C)CO)cc1` (stereo not drawn) [Compound 14.10, 4-({7-amino-5-methyl-[1,2,5]oxadiazolo[3,4-b]pyridin-6-yl}methyl)-N-(1-hydroxypropan-2-yl)benzamide], for which the IC50 amounted to 4.7 nM. The figure for `Cc1nc2nonc2c(N)c1Cc1ccc(C(=O)NCc2cnn(C)c2)cc1` [Compound 14.11, 4-({7-Amino-5-methyl-[1,2,5]oxadiazolo[3,4-b]pyridin-6-yl}methyl)-N-[(1-methyl-1H-pyrazol-4-yl)methyl]benzamide] is 4.16 nM.

Consider `Cc1nc2nonc2c(N)c1Cc1ccc(C(=O)NC2CCOC2)cc1` (stereo not drawn) [Compound 14.12, 4-({7-Amino-5-methyl-[1,2,5]oxadiazolo[3,4-b]pyridin-6-yl}methyl)-N-(oxolan-3-yl)benzamide], for which half-maximal inhibition (IC50) required 3.02 nM.

For the compound `Cc1nc2nonc2c(N)c1Cc1ccc(C(=O)NCC2(C)COC2)cc1` [Compound 14.13, 4-({7-Amino-5-methyl-[1,2,5]oxadiazolo[3,4-b]pyridin-6-yl}methyl)-N-[(3-methyloxetan-3-yl)methyl]benzamide], the IC50 stood at 4.99 nM. As to `Cc1nc2nonc2c(N)c1Cc1ccc(C(=O)NCc2ccnnc2)cc1` [Compound 14.14, 4-({7-Amino-5-methyl-[1,2,5]oxadiazolo[3,4-b]pyridin-6-yl}methyl)-N-[(pyridazin-4-yl)methyl]benzamide], the IC50 stood at 5.55 nM. As for `Cc1nc2nonc2c(N)c1Cc1ccc(C(=O)NCC(C)O)cc1` (stereo not drawn) [Compound 14.15, 4-({7-Amino-5-methyl-[1,2,5]oxadiazolo[3,4-b]pyridin-6-yl}methyl)-N-(2-hydroxypropyl)benzamide], it took 5.12 nM to reach half-maximal inhibition (IC50). For the compound `Cc1nc2nonc2c(N)c1Cc1ccc(C(=O)NC(CO)C2CC2)cc1` (stereo not drawn) [Compound 14.16, 4-({7-Amino-5-methyl-[1,2,5]oxadiazolo[3,4-b]pyridin-6-yl}methyl)-N-(1-cyclopropyl-2-hydroxyethyl)benzamide], half-maximal inhibition (IC50) required 3.73 nM.

`Cc1nc2nonc2c(N)c1Cc1ccc(C(=O)Nc2ncnn2C)cc1` [Compound 14.17, 4-({7-Amino-5-methyl-[1,2,5]oxadiazolo[3,4-b]pyridin-6-yl}methyl)-N-(1-methyl-1H-1,2,4-triazol-5-yl)benzamide] had an IC50 of 4.5 nM. `CNC(=O)c1ccc(Cc2c(C)nc3nonc3c2N)cc1` [Compound 14.18, 4-({7-Amino-5-methyl-[1,2,5]oxadiazolo[3,4-b]pyridin-6-yl}methyl)-N-methylbenzamide]: the midpoint of inhibition, the IC50, lay at 7.77 nM.

Take `Cc1nc2nonc2c(N)c1Cc1ccc(OC(F)(F)F)c(C(=O)N(C)C)c1` [Compound 15.1, 5-({7-Amino-5-methyl-[1,2,5]oxadiazolo[3,4-b]pyridin-6-yl}methyl)-N,N-dimethyl-2-(trifluoromethoxy)benzamide]: the IC50 was found to be 0.183 nM. On to `Cc1nc2nonc2c(N)c1Cc1ccc(OC(F)(F)F)c(C(N)=O)c1` [Compound 15.2, 5-({7-Amino-5-methyl-[1,2,5]oxadiazolo[3,4-b]pyridin-6-yl}methyl)-2-(trifluoromethoxy)benzamide], for which 0.096 nM corresponded to half-maximal inhibition (IC50). Consider `Cc1nc2nonc2c(N)c1Cc1ccc(Cl)c(C(N)=O)c1` [Compound 15.3, 5-({7-Amino-5-methyl-[1,2,5]oxadiazolo[3,4-b]pyridin-6-yl}methyl)-2-chlorobenzamide], for which the midpoint of inhibition, the IC50, lay at 1.58 nM.
